Assay results published in US20180250260A1, “METHODS FOR TREATING CANCER” (BOSTON BIOMEDICAL, INC., priority 2015, published 2018).
Values joined by “and” are separate entries in the source; they are usually repeats but may differ in a detail not shown here. Identical values can stand only once. “Also recorded” adds a separate entry of the source.

System: advanced gastrointestinal cancer, including CRC and gastric cancer
Test: Phase Ib open-label multi-center study, anti-tumor activity (RECIST 1.1)
Type: in vivo, human
Parameters: key to Best Response (RECIST 1.1): partial response (PR); stable disease (SD)
Method: The effects of 2-acetylnaphtho[2,3-b]furan-4,9-dione in combination with FOLFIRI in patients with advanced gastrointestinal cancer, including CRC and gastric cancer, were studied in phase lb open-label, multi-center studies. In one phase lb open label, multi-center clinical study, the safety, tolerability, and preliminary anti-tumor activity of 2-acetylnaphtho[2,3-b]furan-4,9-dione in combination with FOLFIRI, with and without bevacizumab, were assessed in adult patients with advanced gastrointestinal cancer, including CRC and gastric cancer. In addition, the pharmacokinetic profile and the pharmacodynamics (biomarkers) of 2-acetylnaphtho[2,3-b]furan-4,9-dione in combination with FOLFIRI, with and without bevacizumab, were studied, and the recommended phase II dose (RP2D) of 2-acetylnaphtho[2,3-b]furan-4,9-dione and FOLFIRI, with or without bevacizumab, were evaluated.
In total, as of April 2015, 18 patients aged 40-72 were enrolled in the open label, multi-center, phase lb study (see Table 2). These patients were pretreated with an average of >3 prior lines of therapy. Of this group, 10 patients (56%) previously progressed on FOLFIRI.
Of the 17 patients evaluable for response, 8 patients received 2-acetylnaphtho[2,3-b]furan-4,9-dione in combination with FOLFIRI and 9 patients received 2-acetylnaphtho[2,3-b]furan-4,9-dione in combination with FOLFIRI and bevacizumab (see FIG. 7).
Patients received continuous oral administration of 2-acetylnaphtho[2,3-b]furan-4,9-dione twice daily in 28 day cycles. A FOLFIRI regimen was administered (with or without bevacizumab depending on patient) every 14 days. Specifically, 2-acetylnaphtho[2,3-b]furan-4,9-dione was administered at a dose of 240 mg BID in combination with FOLFIRI (5-FU 400 mg/m^2 bolus with 2400 mg/m^2, irinotecan 180 mg/m^2, and leucovorin 400 mg/m^2 infusion) with or without bevacizumab 5 mg/kg, administered bi-weekly until progression of disease, unacceptable toxicity, or other discontinuation criterion was met.
Pharmacokinetics and pharmacodynamics were evaluated and objective tumor response was assessed every 8 weeks using Response Evaluation Criteria In Solid Tumors (RECIST 1.1).

[1] = 240 mg BID with FOLFIRI, with and without bevacizumab, 17 evaluable patients
[2] = individual patients, 240 mg BID with chemotherapy backbone FOLFIRI
[3] = individual patients, 240 mg BID with chemotherapy backbone FOLFIRI/Bev

## CC(=O)c1cc2c(o1)C(=O)c1ccccc1C2=O [2-acetylnaphtho[2,3-b]furan-4,9-dione]
240 mg BID with FOLFIRI, with and without bevacizumab
  regression in the PR patients (RECIST 1.1): 44% and 33%
240 mg BID with FOLFIRI, with and without bevacizumab, 7 of 17 patients
  patients with prolonged SD of ≥6 month: 41%
240 mg BID with FOLFIRI, with and without bevacizumab, 10 of 17
  evaluable patients with prolonged SD (>6 months): 59%
240 mg BID with FOLFIRI, with and without bevacizumab, 15 of 17, FIG. 7
  evaluable patients with reduced target lesions: 88%
[1]
  number of patients with PR (RECIST 1.1): 2
  number of patients with SD: 14
240 mg BID with FOLFIRI, with and without bevacizumab, advanced CRC who had failed prior standard chemotherapy
  patients in whom anti-cancer activity was observed: 94%
240 mg BID with FOLFIRI, with and without bevacizumab, evaluable patients
  median progression-free survival (PFS): 5.72 months
Clinical trials, at least in CRC patients
  overall survival of patients with higher expression levels of Stat3 (pStat3) before treatment: prolonged overall survival
Combination with FOLFIRI for 8 weeks, failed prior epirubicin, oxaliplatin and Xeloda, FIG. 8
  response of a patient with gastric adenocarcinoma with a metastatic lesion in the liver: complete response
In combination with FOLFIRI and bevacizumab
  median survival of pStat3-positive patients compared to pStat3-negative patients: longer median survival
[2]
  Best Response (RECIST 1.1): SD (4×) and PR (3×)
  Comment on course of disease: prolonged stable disease; also recorded: unequivocal progression; also recorded: prolonged stable disease,; also recorded: prolonged SD/PR,
  Weeks on Study: 25 weeks and 17 weeks (2×) and 16 weeks and 6 weeks and 3 weeks and 34+ weeks and 32+ weeks and 36 weeks
  tumor growth: 8% tumor growth, and 3% tumor growth
  tumor regression: 19% tumor regression, and 44% tumor regression and 23% tumor regression and 17 tumor regression, % and 40% tumor regression, and 83% tumor regression,
[3]
  Best Response (RECIST 1.1): SD
  Comment on course of disease: prolonged stable disease,; also recorded: prolonged stable disease
  Weeks on Study: 85+ weeks and 29 weeks and 24 weeks and 18 weeks and 15 weeks and 14 weeks and 25 weeks (2×) and 42 weeks
  tumor regression: 25% tumor regression, and 14% tumor regression, and 18% tumor regression, and 4% tumor regression and 10% tumor regression and 21% tumor regression and 1% tumor regression; and 4% tumor regression; and 18% tumor regression;
With bi-weekly FOLFIRI with or without bevacizumab
  lesion formations in patients previously exposed to FOLFIRI but experiencing progression: reduced lesion formations in almost all of the patients
